Results on 2 compounds are retold here after paper PMC2010101 (British Journal of Cancer, 1979).

The target of the experiment is T1, low-Km cAMP phosphodiesterase.
T1 construct: gene Pde3b; not purified, mixture of isoenzymes
As to the kind of experiment: [3H]cAMP hydrolysis, paper chromatography. Particulars: 0.25 µM cAMP, 100 mM Tris-HCl pH 7.5, 4 mM MgCl2, 30 °C, 5 min, crude fraction, read-out: I50. It is filed as biochemical, Rattus norvegicus.

Like-named read-outs stand apart in the source and are kept apart here.

For the compound `CN(C)N=Nc1[nH]cnc1C(N)=O` [DTIC, 5-(3,3-dimethyl-1-triazeno)imidazole-4-carboxamide], the IC50 (competitive) is 790 µM.

For `Cn1c(=O)c2[nH]cnc2n(C)c1=O` [theophylline], the IC50 was found to be 350 µM.
